Laboratory results taken from patent US20210244735A1, “COMPOSITIONS AND METHODS FOR TREATING MYELOFIBROSIS” (Impact Biomedicines, Inc., priority 2010, published 2021).
“Also recorded” adds a separate entry of the source. Structures can show the parent of a compound that is named as a salt.

What was measured:
[1] = test system: IL-6, IL-8, IL-2 and TNF-α; test: Phase 1 study: cytokine assessment by multiplexed sandwich ELISAs; assay type: in vivo, human; details: relative to baseline during treatment; dihydrochloride monohydrate
Procedure: Cytokine Assessment: Samples for cytokine measurement were collected at baseline and every 4 weeks thereafter. Cytokine levels were measured using multiplexed sandwich ELISAs (Millipore, St. Charles, Mo.).

[2] = Compatibility with capsule shells, accelerated stability; assay type: physicochemical; details: 250 mg filled capsules, 40° C./75% RH and 25° C./60% RH, t=1, 2, and 3 weeks
Procedure: Hard gelatin and hydroxypropylmethyl cellulose (HPMC) capsule shells (size […]) were filled with 250 mg of TG101348 di-HCl monohydrate. The filled capsules were placed on accelerated stability (40° C./75% relative humidity (RH) and 25° C./60% RH). The capsules were packaged into 30 mL (1 oz) amber high density polyethylene (HDPE) bottles.

[3] = Drug substance blend compatibility with fillers and lubricants; assay type: physicochemical; details: blends with lactose, mannitol, MCC Avicel PH102, MCC ProSolv 90 HD; magnesium stearate, Pruv; 60° C./ambient humidity
Procedure: A matrix of formulation blends was designed to study the compatibility of TG101348 di-HCl monohydrate with four fillers and two lubricants (Table 17). Blends were prepared at a scale of 2.5 g each by prescreening all components through a 500 μm sieve, blending all components except the lubricant using aTurbula T2B blender for 10 min at 22 rpm, screening the blend through a 500 μm sieve, blending for 10 min, adding lubricant (weight adjusted) and blending for 5 min The blends were manufactured and stored in 30 mL amber HDPE bottles under primary (60° C./ambient humidity) and backup conditions (40° C./75% RH, 25° C./60% RH, and 5° C.).

human caco-2 cells = test: caco-2 permeability; assay type: in vitro ADME; details: caco-2 permeability data
serum EPO and TPO = test: Phase 1 study: serum EPO and TPO levels; assay type: in vivo, human; details: after treatment initiation (data not shown)
[4] = Bioavailability in multiple species; details: in vivo, oral

Cc1cnc(Nc2ccc(OCCN3CCCC3)cc2)nc1Nc1cccc(S(=O)(=O)NC(C)(C)C)c1 [TG101348, N-tert-butyl-3-[(5-methyl-2-{[4-(2-pyrrolidin-1-ylethoxy)phenyl]amino}pyrimidin-4-yl)amino]benzenesulfonamide dihydrochloride monohydrate]
effect on cytokine levels (IL-6, IL-8, IL-2, TNF-α) [1]: no significant changes; also recorded: minimal effect; also recorded: no consistent changes | changes in attributes (appearance, assay, impurities) in capsule shells [2]: No appreciable changes | compatibility with fillers and lubricants: changes in attributes (appearance, assay, impurities) [3]: no incompatibilities | permeability (human caco-2 cells): on the borderline between “low” and “high” permeability | serum EPO and to a lesser extent TPO levels relative to baseline (serum EPO and TPO): increases | bioavailability [4]: 20 to 25%
